The values below are quoted from earlier work in PMC5721631 (BMJ Open Ophthalmology, 2017).

Each structure is given as a SMILES string.

This series concerns adrenal cortisol biosynthesis (CYP11B1). The note with it: single oral administration.

Consider `CC(C)(C(=O)c1cccnc1)c1cccnc1` [Metpyrapone, metyrapone], for which the “plasma cortisol reduction from baseline” value is listed as “Up to about 80% plasma cortisol reduction from baseline”.
